Legend:
Experiment in all cases: relative viability (nuclei count vs DMSO), 5 days (fraction); higher = more cells survive
Docetaxel = compound: CC(=O)O[C@@]12CO[C@@H]1C[C@H](O)[C@@]1(C)C(=O)[C@H](O)C3=C(C)[C@@H](OC(=O)[C@H](O)[C@@H](NC(=O)OC(C)(C)C)c4ccccc4)C[C@@](O)([C@@H](OC(=O)c4ccccc4)[C@H]21)C3(C)C [Docetaxel]
Method in brief: (§1)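 Following overnight incubation at 37 °C, lung cancer cell lines in 1536-well plates were pinned with five library-drug doses (not always all listed) in √10 steps on vehicle-anchored plates. The cells then spent 5 days without medium change before a combined fix, permeabilisation and Hoechst stain, 4× imaging and MetaXpress nuclear counts. Viability is the treated-to-vehicle ratio of nuclei, taken as the median across plates. Only plates with control CV below 25% and at least one doubling passed.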

Tivozanib = compound: COc1cc2nccc(Oc3ccc(NC(=O)Nc4cc(C)on4)c(Cl)c3)c2cc1OC [Tivozanib]
Method in brief: as §1

[1] = compound: Cc1cnc(-c2cnc(NCCNc3ccc(C#N)cn3)nc2-c2ccc(Cl)cc2Cl)[nH]1
Method in brief: as §1

JQ1 = compound: Cc1sc2c(c1C)C(c1ccc(Cl)cc1)=N[C@@H](CC(=O)OC(C)(C)C)c1nnc(C)n1-2 [JQ1]
Method in brief: as §1

Cytarabine = compound: Nc1ccn([C@@H]2O[C@H](CO)[C@@H](O)[C@@H]2O)c(=O)n1 [Cytarabine]
Method in brief: as §1

CPI-613 = compound: O=C(O)CCCCC(CCSCc1ccccc1)SCc1ccccc1 [CPI-613]
Method in brief: as §1

Pimozide = compound: O=c1[nH]c2ccccc2n1C1CCN(CCCC(c2ccc(F)cc2)c2ccc(F)cc2)CC1 [Pimozide]
Method in brief: as §1

Cell Line	relative viability (Docetaxel; 0.0002 µM)	relative viability (Docetaxel; 0.000632 µM)	relative viability (Docetaxel; 0.002 µM)	relative viability (Docetaxel; 0.006325 µM)	relative viability (Docetaxel; 0.02 µM)	relative viability (Tivozanib; 0.005 µM)	relative viability (Tivozanib; 0.01581 µM)	relative viability (Tivozanib; 0.05 µM)	relative viability (Tivozanib; 0.1581 µM)	relative viability (Tivozanib; 0.5 µM)	relative viability ([1]; 0.08 µM)	relative viability ([1]; 0.253 µM)	relative viability ([1]; 0.8 µM)	relative viability ([1]; 2.53 µM)	relative viability (JQ1; 0.04 µM)	relative viability (JQ1; 0.1265 µM)	relative viability (JQ1; 0.4 µM)	relative viability (JQ1; 1.265 µM)	relative viability (JQ1; 4 µM)	relative viability (Cytarabine; 0.005 µM)	relative viability (Cytarabine; 0.01581 µM)	relative viability (Cytarabine; 0.05 µM)	relative viability (Cytarabine; 0.1581 µM)	relative viability (Cytarabine; 0.5 µM)	relative viability (CPI-613; 5 µM)	relative viability (CPI-613; 15.81 µM)	relative viability (CPI-613; 50 µM)	relative viability (CPI-613; 158.11 µM)	relative viability (CPI-613; 500 µM)	relative viability (Pimozide; 0.08 µM)	relative viability (Pimozide; 0.253 µM)	relative viability (Pimozide; 0.8 µM)	relative viability (Pimozide; 2.53 µM)	relative viability (Pimozide; 8 µM)
HOP-62	0.969	0.759	0.543	0.289	0.184	1.01	1.03	1.09	0.936	0.978	0.989	0.826	1.02	0.942	0.999	0.808	0.662	0.29	0.153	0.848	0.636	0.431	0.159	0.104	0.978	0.936	1	0.833	0.643	1.04	0.947	0.646	0.994	0.981
LU99A	0.997	0.83	0.478	0.395	0.203	0.987	0.849	0.942	0.751	0.952	1.06	0.939	1.04	0.963	0.847	0.667	0.82	0.542	0.32	1.06	0.825	0.905	0.886	0.929	0.896	0.886	0.832	0.756	0.279	0.907	0.938	0.858	0.893	1
H3255	0.899	0.978	0.657	0.336	0.3	0.922	0.985	0.882	0.828	0.926	1.02	0.887	0.994	0.999	0.874	0.665	0.912	0.456	0.336	0.96	0.922	0.763	0.695	0.591	0.94	0.803	0.984	0.92	0.888		0.913	0.907	0.907	0.948
NCI-H647	0.739	0.43	0.209	0.148	0.0799	0.843	0.98	0.981	0.844	0.826	1.06	0.862	0.931	0.934	0.894	0.569	0.527	0.292	0.121	0.63	0.323	0.265	0.111	0.0762	0.913	0.778	0.871	0.499	0.239	0.91	0.981	0.848	0.857	0.806
NCI-H2347	0.973	0.952	0.726	0.52	0.459	0.95	0.997	1.17	0.939	1	1.08	0.894	0.958	1.09	0.992	0.771	0.886	0.709	0.518	1.07	0.914	0.825	0.658	0.661	1.03	0.866	0.96	0.776	0.844	0.911	0.957	0.828	0.962	0.986
ChaGo-K-1	1	0.691	0.636	0.349	0.196	0.979	0.956	0.97	0.909	0.921	0.987	0.854	1.02	0.939	0.93	0.845	0.956	0.901	0.743	0.687	0.681	0.509	0.383	0.283	0.918	0.981	0.975	0.705	0.411	1.08	0.95	0.975	0.96	0.961
RERF-LC-KJ	0.94	0.79	0.335	0.218	0.173	0.951	0.939	1.06	0.935	0.969	1.1	0.906	0.89	1	0.985	1.01	0.967	0.624	0.423	0.869	0.907	0.77	0.567	0.435	0.978	0.883	1.02	0.891	0.865	0.959	0.887	0.867	0.869	0.792
LCLC-103H	0.973	1.09	0.903	0.502	0.458	0.996	0.995	1.06	0.982	0.994	1.03	0.865	0.989	0.952	0.979	0.83	0.906	0.658	0.427	0.912	0.991	1.01	0.965	0.894	0.999	0.95	0.99	0.854	0.773	0.975	0.905	0.911	0.969	0.963
NCI-H1703	0.891	0.869	0.274	0.163	0.127	0.36	0.271	0.311	0.211	0.215	1.14	0.901	1.01	1.28	0.865	0.675	0.639	0.431	0.405	0.729	0.393	0.288	0.16	0.153	1.04	0.836	0.749	0.585	0.406	0.899	0.916	0.913	0.95	0.892
